Our source for the IC50 values is patent US20180148418A1, “AMIDO-SUBSTITUTED CYCLOHEXANE DERIVATIVES” (Bayer Pharma Aktiengesellschaft, priority 2015, published 2018).

The subject of test [1] is wildtype Wnt signaling cascade. The experiment in a line: HEK293 TOP assay (Super TopFlash luciferase reporter, Wnt-3a stimulated). The test is classed as cell-based. The note with it: HEK293 TOP reporter cells, Wnt3a at EC50, 16 hours. In short, it runs like this:
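Compound series (50 μM down to 15 nM, 3.16-fold) diluted from DMSO 50-fold into CAFTY buffer, pH 7.4, 2 mM Ca^2+, 0.01% BSA, applied to Wnt-3a-stimulated HEK293 TopFlash and FOP reporter lines in parallel. Cells seeded 10000/well 24 h before; luciferase signal measured.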
On the technique in general: Reporter assays use an easily measured gene product as a stand-in for the process of interest.

In another test the target is T1, TNKS2 (Homo sapiens, UniProt Q9H2K2).
T1 construct: purchased BPS Bioscience, San Diego, USA 80572 (TNKS2 Histone Ribosylation Assay Kit)
T1 sequence (Q9H2K2 1-1166): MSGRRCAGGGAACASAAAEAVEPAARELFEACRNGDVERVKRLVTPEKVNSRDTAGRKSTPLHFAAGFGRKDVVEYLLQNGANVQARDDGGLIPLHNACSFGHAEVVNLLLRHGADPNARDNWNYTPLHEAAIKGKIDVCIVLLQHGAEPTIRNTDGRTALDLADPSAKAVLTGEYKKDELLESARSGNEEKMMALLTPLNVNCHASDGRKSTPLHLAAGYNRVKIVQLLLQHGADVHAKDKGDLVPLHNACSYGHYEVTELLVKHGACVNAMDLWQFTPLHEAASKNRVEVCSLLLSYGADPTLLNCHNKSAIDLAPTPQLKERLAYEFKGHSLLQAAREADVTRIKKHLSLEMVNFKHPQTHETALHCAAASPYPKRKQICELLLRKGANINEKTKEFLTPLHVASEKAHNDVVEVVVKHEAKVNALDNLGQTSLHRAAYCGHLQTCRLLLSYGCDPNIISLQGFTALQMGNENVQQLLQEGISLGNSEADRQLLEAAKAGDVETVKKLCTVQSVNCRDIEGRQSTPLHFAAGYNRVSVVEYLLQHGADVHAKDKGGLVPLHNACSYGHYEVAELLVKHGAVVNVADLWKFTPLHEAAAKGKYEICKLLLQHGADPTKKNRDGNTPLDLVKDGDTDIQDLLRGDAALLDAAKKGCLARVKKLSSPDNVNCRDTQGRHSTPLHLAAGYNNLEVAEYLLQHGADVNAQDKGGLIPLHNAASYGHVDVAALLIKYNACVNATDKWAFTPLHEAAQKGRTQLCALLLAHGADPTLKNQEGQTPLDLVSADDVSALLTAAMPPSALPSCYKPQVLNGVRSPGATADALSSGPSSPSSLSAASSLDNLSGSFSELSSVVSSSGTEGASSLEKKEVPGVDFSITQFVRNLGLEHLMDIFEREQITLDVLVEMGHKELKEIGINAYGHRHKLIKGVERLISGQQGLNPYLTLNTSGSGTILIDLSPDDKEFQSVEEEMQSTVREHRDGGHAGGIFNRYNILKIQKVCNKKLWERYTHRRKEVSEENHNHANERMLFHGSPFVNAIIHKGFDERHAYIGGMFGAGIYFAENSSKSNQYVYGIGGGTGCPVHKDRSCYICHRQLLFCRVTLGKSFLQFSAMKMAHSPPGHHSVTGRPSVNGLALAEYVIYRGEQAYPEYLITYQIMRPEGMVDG
The experiment in a line: TNKS2 Assay B (auto-parsylation, [3H]-NAD+ SPA). The format is biochemical. The note with it: 6 nM TNKS2, auto-parsylation, over night at room temperature.

The IC50 is the concentration at which inhibition is half-maximal. A lower IC50 goes with greater potency in that assay. With `O=C(NCC1CCCO1)c1nc[nH]c1C(=O)N[C@H]1CC[C@H](C(=O)Nc2cc(C(F)(F)F)ccc2Cl)CC1` (stereo partly drawn) [Example 146, N^5-(trans-4-{[2-chloro-5-(trifluoromethyl)phenyl]carbamoyl}cyclohexyl)-N^4-(tetrahydrofuran-2-ylmethyl)-1H-imidazole-4,5-dicarboxamide], the IC50 was 720 nM in test [1] (Homo sapiens, HEK293, 16 h) and 100 nM on TNKS2.
As to `Cc1cc(C)n2ncc(C(=O)NC34CCC(C(=O)Nc5c(F)cc(F)cc5Cl)(CC3)CC4)c2n1` [Example 127, N-{4-[(2-chloro-4,6-difluorophenyl)carbamoyl]bicyclo[2.2.2]oct-1-yl}-5,7-dimethylpyrazolo[1,5-a]pyrimidine-3-carboxamide], the IC50 in test [1] (Homo sapiens, HEK293, 16 h) was 220 nM; on TNKS2, 300 nM.
Take `O=C(N[C@H]1CC[C@H](C(=O)Nc2cc(F)c(F)cc2Cl)CC1)c1cnc2cccnn12` [Example 132, N-{trans-4-[(2-chloro-4,5-difluorophenyl)carbamoyl]cyclohexyl}imidazo[1,2-b]pyridazine-3-carboxamide]: the IC50 in test [1] (Homo sapiens, HEK293, 16 h) came out at 51 nM; on TNKS2, 29 nM.
Consider `COCc1cc(C)n2ncc(C(=O)N[C@H]3CC[C@H](C(=O)Nc4ccc(F)cc4Cl)CC3)c2n1` [Example 110, N-{trans-4-[(2-chloro-4-fluorophenyl)carbamoyl]cyclohexyl}-5-(methoxymethyl)-7-methylpyrazolo[1,5-a]pyrimidine-3-carboxamide], for which the IC50 in test [1] (Homo sapiens, HEK293, 16 h) turned out to be 270 nM; on TNKS2, 86 nM.
For the compound `CCN(c1ccc(F)cc1Cl)C(=O)[C@H]1CC[C@H](NC(=O)c2cnn3cccnc23)CC1` [Example 154, N-{trans-4-[(2-chloro-4-fluorophenyl)(ethyl)carbamoyl]cyclohexyl}pyrazolo[1,5-a]pyrimidine-3-carboxamide], the IC50 in test [1] (Homo sapiens, HEK293, 16 h) is 130 nM; against TNKS2 it was 57 nM.
For `CC(C)(O)CNC(=O)c1nc[nH]c1C(=O)N[C@H]1CC[C@H](C(=O)Nc2cc(N3CCOCC3)ccc2Cl)CC1` [Example 94, N^5-(trans-4-{[2-chloro-5-(morpholin-4-yl)phenyl]carbamoyl}cyclohexyl)-N^4-(2-hydroxy-2-methylpropyl)-1H-imidazole-4,5-dicarboxamide], in that order: 610 nM and 1600 nM.
With `O=C(N[C@H]1CC[C@]2(CCN(c3ccc(F)cc3Cl)C2=O)CC1)c1cnn2cccnc12` [Example 148, N-[(cis)-2-(2-chloro-4-fluorophenyl)-1-oxo-2-azaspiro[4.5]dec-8-yl]pyrazolo[1,5-a]pyrimidine-3-carboxamide], the IC50 in test [1] (Homo sapiens, HEK293, 16 h) turned out to be 140 nM; against TNKS2 it was 1300 nM.
`CNC(=O)c1nc[nH]c1C(=O)N[C@H]1CC[C@H](C(=O)Nc2ccc(F)cc2Br)CC1` [Example 7, N^5-{trans-4-[(2-bromo-4-fluorophenyl)carbamoyl]cyclohexyl}-N^4-methyl-1H-imidazole-4,5-dicarboxamide]: the IC50 in test [1] (Homo sapiens, HEK293, 16 h) turned out to be 30 nM; on TNKS2 it was 27 nM.
As to `O=C(N[C@H]1CC[C@H](C(=O)Nc2cnc(C(F)(F)F)cc2Cl)CC1)c1cnn2cccnc12` [Example 149, N-(trans-4-{[4-chloro-6-(trifluoromethyl)pyridin-3-yl]carbamoyl}cyclohexyl)pyrazolo[1,5-a]pyrimidine-3-carboxamide], the IC50 stood at 190 nM in test [1] (Homo sapiens, HEK293, 16 h) and 170 nM at TNKS2.
In the same order, the values of `Cc1cc(NC(=O)[C@H]2CC[C@H](NC(=O)c3cnn4cccnc34)CC2)c(Cl)cc1F` [Example 150, N-{trans-4-[(2-chloro-4-fluoro-5-methylphenyl)carbamoyl]cyclohexyl}pyrazolo[1,5-a]pyrimidine-3-carboxamide] are 80 nM and 35 nM.
In the same order, the values of `Cc1cc(C)n2ncc(C(=O)NC34CCC(C(=O)Nc5cnccc5Cl)(CC3)CC4)c2n1` [Example 128, N-{4-[(4-chloropyridin-3-yl)carbamoyl]bicyclo[2.2.2]oct-1-yl}-5,7-dimethylpyrazolo[1,5-a]pyrimidine-3-carboxamide] are 240 nM and 96 nM.
Turning to `CN(c1ccccc1)C(=O)[C@H]1CC[C@H](NC(=O)c2cnn3cccnc23)CC1` [Example 156, N-{trans-4-[methyl(phenyl)carbamoyl]cyclohexyl}pyrazolo[1,5-a]pyrimidine-3-carboxamide], the IC50 in test [1] (Homo sapiens, HEK293, 16 h) was determined as 190 nM; at TNKS2 it was 230 nM.
Take `CCOC(=O)c1cnc2c(C(=O)N[C@H]3CC[C@H](C(=O)Nc4ccc(F)cc4Cl)CC3)cnn2c1` [Example 106, ethyl 3-({trans-4-[(2-chloro-4-fluorophenyl)carbamoyl]cyclohexyl}carbamoyl)pyrazolo[1,5-a]pyrimidine-6-carboxylate]: the IC50 was found to be 400 nM in test [1] (Homo sapiens, HEK293, 16 h) and 15 nM against TNKS2.
As to `Cc1cc(C)n2ncc(C(=O)N[C@H]3CC[C@H](C(=O)Nc4ccncc4Cl)CC3)c2n1` [Example 102, N-{trans-4-[(3-chloropyridin-4-yl)carbamoyl]cyclohexyl}-5,7-dimethylpyrazolo[1,5-a]pyrimidine-3-carboxamide], the IC50 in test [1] (Homo sapiens, HEK293, 16 h) came out at 120 nM; against TNKS2, 200 nM.
For the compound `CNC(=O)c1[nH]cnc1C(=O)NC1CCC(C(=O)Nc2ccc(F)cc2Cl)CC1OC` (stereo not drawn) [Example 36, N^4-{(1α,2β,4β)-4-[(2-chloro-4-fluorophenyl)carbamoyl]-2-methoxycyclohexyl}-N^5-methyl-1H-imidazole-4,5-dicarboxamide], the values for the IC50 (in test [1]; at TNKS2) were 4900 nM and above 10000 nM, respectively.
With `O=C(NC12CCC(C(=O)Nc3c(F)cc(F)cc3Cl)(CC1)CC2)c1cnc2cccnn12` [Example 123, N-{4-[(2-chloro-4,6-difluorophenyl)carbamoyl]bicyclo[2.2.2]oct-1-yl}imidazo[1,2-b]pyridazine-3-carboxamide], the IC50 in test [1] (Homo sapiens, HEK293, 16 h) was determined as 660 nM; at TNKS2, 480 nM.
For the compound `O=C(NCC1CCCO1)c1nc[nH]c1C(=O)N[C@H]1CC[C@H](C(=O)Nc2cnccc2Cl)CC1` (stereo partly drawn) [Example 97, N^5-{trans-4-[(4-chloropyridin-3-yl)carbamoyl]cyclohexyl}-N^4-(tetrahydrofuran-2-ylmethyl)-1H-imidazole-4,5-dicarboxamide], the IC50 is 34 nM in test [1] (Homo sapiens, HEK293, 16 h) and 39 nM against TNKS2.
Consider `CNC(=O)c1nc[nH]c1C(=O)N[C@H]1CC[C@H](C(=O)Nc2c(F)cc(F)cc2Cl)CC1` [Example 6, N^5-{trans-4-[(2-chloro-4,6-difluorophenyl)carbamoyl]cyclohexyl}-N^4-methyl-1H-imidazole-4,5-dicarboxamide], for which the IC50 in test [1] (Homo sapiens, HEK293, 16 h) was found to be 55 nM; at TNKS2, 60 nM.
In the case of `CC(C)NC(=O)c1nc[nH]c1C(=O)N[C@H]1CC[C@@]2(CCN(c3ccc(F)cc3Cl)C2=O)CC1` [Example 162, N^5-[(trans)-2-(2-chloro-4-fluorophenyl)-1-oxo-2-azaspiro[4.5]dec-8-yl]-N^4-isopropyl-1H-imidazole-4,5-dicarboxamide], the IC50 worked out at 9.4 nM in test [1] (Homo sapiens, HEK293, 16 h) and 8.2 nM on TNKS2.
As to `O=C(N[C@H]1CC[C@H](C(=O)Nc2ccc(F)cc2Cl)CC1)c1cnn2ccc(N3CCCC3)nc12` [Example 108], the IC50 in test [1] (Homo sapiens, HEK293, 16 h) was found to be 180 nM; on TNKS2 it was 60 nM.
Turning to `CNC(=O)c1[nH]cnc1C(=O)NC12CCC(C(=O)Nc3ccc(F)cc3Cl)(CC1)CC2` [Example 115, N^4-{4-[(2-chloro-4-fluorophenyl)carbamoyl]bicyclo[2.2.2]oct-1-yl}-N^5-methyl-1H-imidazole-4,5-dicarboxamide], the IC50 in test [1] (Homo sapiens, HEK293, 16 h) is 180 nM; against TNKS2, 190 nM.
